These results are taken from patent US9266835B2, “Quinoline derivatives useful as CB-1 inverse agonists” (JANSSEN PHARMACEUTICA NV, priority 2014, dated 2016).

Structures are written as SMILES.

In general, EC50 refers to the concentration at which the effect is half-maximal. A high value points to a need for much substance.

Data set [1] addresses Human CB2R (Cannabinoid receptor 2) (Homo sapiens (Human), UniProt P34972). Put plainly: CB-2 in vitro cAMP assay (HTRF), inverse agonism. Type of data set: cell-based. To be noted: mean where tested more than once. Background: Changes in cAMP serve as a functional read-out for many G protein-coupled receptors.
A short description of data set [2]: Chronic DIO Mouse, second study: plasma and brain concentrations. It counts as in vivo. To be noted: DIO mice; for concentration at 2 h: male, mouse, oral. On the procedure: (§1) Male 14-20-week old diet-induced obese mice were ordered from Taconic. Mice were started on a 60% fat diet (D12492, Research Diets, New Brunswick, N.J.) at 6 weeks of age. Mice were single-housed.
(§2) Test compounds were formulated in 10% PEG400 and 10% solutol. Test compounds were administered by oral gavage (5 ml kg^−1).
The test compound was formulated in 10% PEG400 and 10% solutol. […] At the end of the experiment, the mice were euthanized and blood and tissues were collected.
In a second study, Compound #44 was tested according to the procedure as described above, with results as listed in Tables BIO-5A through 5G, below.

Data set [3] can be described thus: Chronic DIO Mouse, first study: plasma and brain concentrations. It counts as in vivo. The note with it: male, DIO mice, 2 Hours Post Dose, Day 16, (Std Dev). As for the experimental part: as §1, §2
The test compound was formulated in 10% PEG400 and 10% solutol. DIO mice received vehicle, test compound (@ 1, 3 and 10 mg/kg) daily for 26 days. At the end of the experiment, the mice were euthanized and blood and tissues were collected.
Compound #44 was tested according to the procedure as described above, with results as listed in Table BIO-4A through Table BIO4-G, below.

Data set [4] concerns the target Human CB1R (Cannabinoid receptor 1) (Homo sapiens (Human), UniProt P21554). In words: CB-1 in vitro cAMP assay (HTRF), inverse agonism. Type of data set: cell-based. To be noted: mean where tested more than once.

Sequence of Human CB2R (Cannabinoid receptor 2) (P34972 whole entry): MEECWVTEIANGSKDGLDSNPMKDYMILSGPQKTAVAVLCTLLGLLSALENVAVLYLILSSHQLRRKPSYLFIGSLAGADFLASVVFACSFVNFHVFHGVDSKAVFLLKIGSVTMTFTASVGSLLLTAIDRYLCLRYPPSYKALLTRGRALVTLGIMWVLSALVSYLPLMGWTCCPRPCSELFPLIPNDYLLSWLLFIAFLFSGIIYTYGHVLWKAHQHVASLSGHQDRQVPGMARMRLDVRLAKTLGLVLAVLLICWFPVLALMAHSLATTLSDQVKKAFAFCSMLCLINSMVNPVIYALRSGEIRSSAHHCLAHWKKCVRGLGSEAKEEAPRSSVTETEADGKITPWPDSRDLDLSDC
Sequence of Human CB1R (Cannabinoid receptor 1) (P21554 whole entry): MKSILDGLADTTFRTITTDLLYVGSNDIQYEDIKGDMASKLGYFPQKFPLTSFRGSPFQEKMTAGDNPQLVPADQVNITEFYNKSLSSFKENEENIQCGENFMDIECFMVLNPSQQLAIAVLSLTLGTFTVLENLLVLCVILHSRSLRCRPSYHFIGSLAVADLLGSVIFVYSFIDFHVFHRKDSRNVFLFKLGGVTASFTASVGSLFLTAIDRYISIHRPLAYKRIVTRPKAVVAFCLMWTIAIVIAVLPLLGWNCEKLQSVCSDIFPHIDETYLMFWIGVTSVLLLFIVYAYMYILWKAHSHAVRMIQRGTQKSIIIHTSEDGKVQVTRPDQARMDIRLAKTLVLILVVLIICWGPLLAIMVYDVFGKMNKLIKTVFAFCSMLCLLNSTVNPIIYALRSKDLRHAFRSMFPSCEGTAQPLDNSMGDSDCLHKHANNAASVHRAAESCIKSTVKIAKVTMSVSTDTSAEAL

With `O=c1cc(NC2CCN(S(=O)(=O)C(F)(F)F)CC2)c2cc(C(c3ccc(Cl)cc3)c3ccc(Cl)cc3)ccc2[nH]1` [Compound #44, 6-(bis(4-chlorophenyl)methyl)-4-(1-(trifluoromethylsulfonyl)piperidin-4-ylamino)quinolin-2(1H)-one], the concentration for a half-maximal effect (EC50) in data set [1] was 5.23 µM; in data set [4], 8 nM. Further, the “Brain concentration (Std Dev)” value in data set [2] (0.3 mg/kg, Day 2, 2 hours post dose) was “BLOQ*”; in data set [2] (0.3 mg/kg, Day 23, 2 hours post dose) it was “BLOQ**”; in data set [2] (1 mg/kg, Day 2, 2 hours post dose), “BLOQ*”; in data set [2] (3 mg/kg, Day 2, 2 hours post dose) it was “BLOQ*”. In addition, the concentration at 2 h came out at 36.8 ng/g in data set [2] (brain, 1 mg/kg, 1 mg/kg, Day 23, 2 hours post dose, read-out: Brain concentration (Std Dev)); 100 ng/g in data set [2] (brain, 3 mg/kg, 3 mg/kg, Day 23, 2 hours post dose, read-out: Brain concentration (Std Dev)); 62.3 ng/g in data set [2] (brain, 10 mg/kg, 10 mg/kg, Day 2, 2 hours post dose, read-out: Brain concentration (Std Dev)); 201 ng/g in data set [2] (brain, 10 mg/kg, 10 mg/kg, Day 23, 2 hours post dose, read-out: Brain concentration (Std Dev)); 61.3 ng/mL in data set [2] (plasma, 0.3 mg/kg, 0.3 mg/kg, Day 2, 2 hours post dose, read-out: Plasma concentration (Std Dev)); 192 ng/mL in data set [2] (plasma, 0.3 mg/kg, 0.3 mg/kg, Day 23, 2 hours post dose, read-out: Plasma concentration (Std Dev)). The concentration at 2 h came to 310 ng/mL in data set [2] (plasma, 1 mg/kg, 1 mg/kg, Day 2, 2 hours post dose, read-out: Plasma concentration (Std Dev)); 515 ng/mL in data set [2] (plasma, 1 mg/kg, 1 mg/kg, Day 23, 2 hours post dose, read-out: Plasma concentration (Std Dev)); 759 ng/mL in data set [2] (plasma, 3 mg/kg, 3 mg/kg, Day 2, 2 hours post dose, read-out: Plasma concentration (Std Dev)); 1560 ng/mL in data set [2] (plasma, 3 mg/kg, 3 mg/kg, Day 23, 2 hours post dose, read-out: Plasma concentration (Std Dev)); 2490 ng/mL in data set [2] (plasma, 10 mg/kg, 10 mg/kg, Day 2, 2 hours post dose, read-out: Plasma concentration (Std Dev)); 5280 ng/mL in data set [2] (plasma, 10 mg/kg, 10 mg/kg, Day 23, 2 hours post dose, read-out: Plasma concentration (Std Dev)). The concentration at 2 h was found to be 59.4 ng/g in data set [3] (brain, 1 mg/kg daily oral, read-out: Brain concentration); 114 ng/g in data set [3] (brain, 3 mg/kg daily oral, read-out: Brain concentration); 244 ng/g in data set [3] (brain, 10 mg/kg daily oral, read-out: Brain concentration); 31 ng/mL in data set [3] (plasma, 1 mg/kg daily oral, read-out: Plasma concentration); 1510 ng/mL in data set [3] (plasma, 3 mg/kg daily oral, read-out: Plasma concentration); 4440 ng/mL in data set [3] (plasma, 10 mg/kg daily oral, read-out: Plasma concentration).
